Measured values taken from patent US7041638B2, “Surfactant prevention of vaginitis and lung complications from cancer chemotherapy” (The Penn State Research Foundation, priority 2001, dated 2006).
Where two headings read alike, the source gives them in different places.

Assays:
Assay type in all cases: cell-based, human
THP-1 cells [1] = assay: Cell viability by trypan blue exclusion
Procedure: (§1) The THP-1 cell line was obtained from the American Type Culture Collection. Cells were grown in RPMI 1640 medium (Sigma) with 0.05 mM 2-mercaptoethanol containing 10% fetal calf serum (FCS; Summit Biotechnology) at 37° C. in an atmosphere of 5% CO2. The cells were split periodically and used at passages 8–15 in the various experiments. After differentiation with 10^−8 M Vitamin D3 for 72 h, cells were pelleted and washed with cold PBS. The cell pellet was then resuspended in complete RPMI 1640 medium with 10% FCS at a density of 2×10^6 cells/ml in 24-well culture plates, and exposed to bleomycin and SP-A. Cell viability was determined by trypan blue exclusion. […] Incubations were terminated by pelleting the cells. Supernatants and/or cell pellet were stored at −80° C. until assayed.

THP-1 cells [2] = assay: Cytokine mRNA in THP-1 cells by ribonuclease protection assay (RPA); conditions: for relative intensity of TNF-α mRNA / IL-8 mRNA level: SP-A 10 μg/ml and/or bleomycin 5 mU/ml, normalized to L32; for relative intensity of TNF-α mRNA: FIG. 4A; for IL-8 mRNA level: 4 h, FIG. 4B
Procedure: (§2) After differentiation with 10^−8 M of vitamin D3 for 72 h, THP-1 cells were pelleted and washed as described above. Cells at a density of 2×10^6 cells/ml were incubated at 24 well culture plates. For dose-response study, cells were stimulated with bleomycin at concentrations ranging from 0–100 mU/ml. Time-dependent secretion of cytokines following bleomycin treatment was studied from 0–24 h with 5 and 50 mU/ml of bleomycin. In experiments where the combined effects of SP-A and bleomycin were examined, SP-A (10 μg/ml) and bleomycin (5 or 50 mU/ml) were added to cells simultaneously, unless otherwise noted. After treatment, the culture medium was collected at 4 h or 6 h for the ELISA assay of cytokine production and cells were harvested at 2 h or 4 h for cytokine mRNA analysis.
Total RNA was isolated from THP-1 cells at 2 h or 4 h after treatment by using Rneasy Mini Kits (QIAGEN) according to the protocol of the RNeasy Mini Handbook. Cytokine mRNA quantification was performed by ribonuclease protection assay (RPA). RiboQuant™ Ribonuclease RPA Starter Package and a Customized Human Template Set (Pharmingen) were used to analyze TNF-α, IL-1β, and IL-8 mRNA in one assay. The customized template set contains DNA templates that can be used for T7 RNA polymerase-directed synthesis of α-^32P-UTP-labeled, anti-sense RNA probes. These can be hybridized to TNF-α, IL-1β, and IL-8 mRNA. Templates for the L32 and GAPDH housekeeping genes were also included to allow for normalization of sampling or technical error. Aliquots of 2 μg of total RNA were hybridized with radiolabeled probes at 56° C. for 16 h. RNase treatment followed, resulting in degradation of single-stranded RNA and free probes. After inactivation and precipitation, protected probes were resolved by a 5% polyacrylamide-urea sequence gel electrophoresis and visualized by autoradiography. Densities of the protected bands were quantified by soft laser densitometry. The mRNA level is expressed as the ratio of the densitometric value of each cytokine mRNA to that of the L32 or GAPDH mRNA.

THP-1 cells [3] = assay: Cytokine production by differentiated THP-1 cells after SP-A, bleomycin or Ara-C (ELISA); conditions: for TNF-α level in culture medium: mean±SEM, FIG. 3A
Procedure: as §1, §2
Cytosine arabinoside (Ara-C, Cytosar-U, Pharmacia & Upjohn) was included in some experiments to confirm the specificity of the effect of bleomycin on proinflammatory cytokine production by THP-1 cells. Ara-C is another antineoplastic agent with known cytotoxicity. […] Ara-C, at concentrations ranging from 0.1 to 5 mM in culture medium, was used for evaluating the effect of Ara-C on TNF-α. The conditions employed in the Ara-C experiments were the same as those in bleomycin studies except that only a 4 h time point was done.
The ELISA assays for TNF-α, IL-8, and IL-1β (OptEIA Human ELISA Sets, Pharmingen) were performed according to the instructions recommended by the manufacturer. The ELISA kits were capable of measuring levels of 7.8–500 pg/ml for TNF-α, 6.2–400 pg/ml for IL-8 and 20–1000 pg/ml for IL-1β. A reference curve for each of these cytokines was obtained by plotting the concentration of several dilutions of standard protein versus the corresponding absorbance.

[4] = SP-A 10 μg/ml and/or bleomycin 5 mU/ml, 4 h

Molecule	effect on the viability of THP-1 cells (THP-1 cells [1]; conditions employed in this study)	relative intensity of TNF-α mRNA (THP-1 cells [2]; 2 h)	relative intensity of IL-1β mRNA (THP-1 cells [2]; 2 h, SP-A 10 μg/ml, bleomycin 5 mU/ml, LPS 0.1 ng/ml)	IL-8 mRNA level (THP-1 cells [2])	lowest bleomycin concentration that increased TNF-α level (THP-1 cells [3]; 4 h, dose range 0–100 mU/ml, FIG. 1A)	lowest bleomycin concentration that increased IL-8 level (THP-1 cells [3]; 4 h, dose range 0–100 mU/ml, FIG. 1B)	bleomycin concentration needed to increase IL-1β level significantly (THP-1 cells [3]; 6 h, dose range 0–100 mU/ml, FIG. 1C)	TNF-α level in culture medium (THP-1 cells [3]; [4])	time to maximum TNF-α level (THP-1 cells [3]; bleomycin 5, 50 mU/ml, depending on dose, FIG. 2A)	time at which increase of TNF-α levels was detected (THP-1 cells [3]; bleomycin 5, 50 mU/ml, 0–24 h, FIG. 2A)	time at which TNF-α returned to background levels (THP-1 cells [3]; bleomycin 5, 50 mU/ml, FIG. 2A)	time to maximal IL-8 level (THP-1 cells [3]; bleomycin 5, 50 mU/ml, FIG. 2B)	time to peak IL-1β level (THP-1 cells [3]; bleomycin 5, 50 mU/ml, FIG. 2C)	TNF-α level in culture medium (THP-1 cells [3]; bleomycin 50 mU/ml with or without SP-A 10 μg/ml, 4 h)	TNF-α level after Ara-C treatment versus control (THP-1 cells [3]; Ara-C 0.1 to 5 mM, 4 h, FIG. 1D)	effect on the viability of THP-1 cells (THP-1 cells [1])
bleomycin	neither bleomycin nor SP-A appeared to have any effect	0.74±0.20	Very low levels	1.02±0.16	0.5 mU/ml	0.5 mU/ml	50 mU/ml	45.9 ± 10.6 pg/mL	4 to 6 h	3 h	24 h	around 5 h	10 h	82.1 ± 17.3 pg/mL	–	–
Nc1ccn([C@@H]2O[C@H](CO)[C@@H](O)[C@@H]2O)c(=O)n1 [Ara-C, Cytosine arabinoside]	–	–	–	–	–	–	–	–	–	–	–	–	–	–	did not differ from that of control	–
SP-A: native human surfactant protein A purified from bronchoalveolar lavage of alveolar proteinosis patients	–	0.51±0.27	–	1.26±0.14	–	–	–	86.6 ± 11.5 pg/mL	–	–	–	–	–	–	–	neither bleomycin nor SP-A appeared to have any effect
